Reference: patent publication US4160097A, “1-(2-Phenylureylene)imidazoles” (Westwind Pharmaceuticals, Inc., priority 1977, dated 1979)
Converted amounts (≈) assume the structure as drawn.

What was measured:
[1] = tested on: Trichophyton mentagrophytes; test: Antifungal activity, agar dilution method; type: cell-based, Trichophyton mentagrophytes (ATCC No. 8757 and 9129); conditions: T. mentagrophytes, read-out: Parts Per Million Inhibitions of T. mentagrophytes
Procedure: (§1) various compounds of this invention display antifungal and anti-yeast activity.
(§2) In Table IX below are listed the antifungal activity of a number of compounds encompassed in the present invention. These were determined by the agar dilution method as described in Chapters 2 and 3 of Methods in Microbiology, Vol. 7B, edited by J. R. Norris and D. W. Ribbons, Academic Press, New York, 1972.

Trichophyton rubrum = test: Antifungal activity, agar dilution method; type: cell-based, Trichophyton rubrum (ATCC No. 10218 and 14001); conditions: T. rubrum, read-out: Parts Per Million Inhibitions of T. rubrum
Procedure: as §1, §2

[2] = tested on: carrageenan rat paw edema; test: Rat Paw Edema Assay, Oral Dosing; type: in vivo; conditions: 4 h, four hours after drug, read-out: % Difference from Control; for change in vivo at 100 mg/kg: 100 mg/kg oral; for change in vivo at 400 mg/kg: 400 mg/kg oral
Procedure: The anti-inflammatory activity of representative compounds of this invention was determined by the rat paw edema assay both by local administration (Table XI below) and by oral dosing (Table XII below). For the oral dosing, the procedure of C. A. Winter, E. A. Risley and G. W. Nuss, Proc. Soc. Exp. Biol. Med. III, 544 (1962) was employed with measurement taken four hours after the drug was administered. The local administration tests were carried out similarly except the irritant (carrageenan) and the test compound were injected simultaneously at time zero.
Tables XI and XII report the anti-inflammatory activity of the compounds tested as % difference in the edema or swelling as compared with the control. These Tables also give the response in many instances of more than one dose level of the same drug.

Trichophyton ajelloi = test: Antifungal activity, agar dilution method; type: cell-based; conditions: Arthroderma uncinatum, T. ajelloi, read-out: Parts Per Million Inhibitions of T. ajelloi
Procedure: as §1, §2

[3] = tested on: humeral or antibody response; test: hemolysin test in mice; type: in vivo; conditions: Mus musculus, sc, dose reducing antibody activity by 50% vs control, read-out: HL(ED50)
[4] = tested on: cell-mediated immune response to the antigen, Mycobacterium tuberculosis H37Ra; test: delayed hypersensitivity test; type: in vivo, mouse; conditions: Mus musculus, sc; mice; dose reducing edema of cell-mediated immune response by 60% vs control; read-out: D.H.S. (ED60)
Procedure: The immunosuppressant activities of the compounds of this invention were determined via the hemolysin test in mice and by the delayed hypersensitivity test. The hemolysin test used is that described in Methods in Immunology, edited by D. H. Campbell et al, W. A. Benjamin, New York 1963 pages 172-175, and measures humeral or antibody response. The delayed hypersensitivity test measures the effect of a test compound on the ability of a subject mouse to mount a cell-mediated immune response to the antigen, Mycobacterium tuberculosis H37Ra. The mouse is sensitized to the antigen by subcutaneous administration in the base of the tail. The development of the delayed hypersensitivity response may be measured at any time beginning six days after sensitization but is usually done on the ninth day as follows: The right hind paw is injected with purified protein derivative (tuberculin) while the left hind paw (control) receives physiological saline. Both paw volumes are measured after twenty-four hours and significant increase in the volume of the right hand paw is taken as a measure of an effective delayed hypersensitivity response. All compounds were administered by the subcutaneous route.
The D.H.S. (ED60) mg./kg. s.c. value appearing in column 3 is an expression of the effectiveness of the drug in reducing the edema that accompanies the cell-mediated immune response. It is a measure of the number of milligrams per kilogram of body weight of the drug administered subcutaneously which is required to reduce the edema of the cell-mediated immune response by 60% when compared to the control.

## CCCc1nc2ccccc2n2ccnc12 [Compound 112]
[1]
  MIC: 128 µg/mL (≈ 606 µM)
Trichophyton rubrum
  MIC: 64 µg/mL (≈ 303 µM)
[2]
  change in vivo at 100 mg/kg: -17%
  change in vivo at 400 mg/kg: -68%

## c1ccc2c(c1)nc(C1CCC1)c1nccn12 [Compound 128]
Trichophyton rubrum
  MIC: 16 µg/mL (≈ 71.7 µM)
[2]
  change in vivo at 100 mg/kg: -39%

## Cc1ccc(-c2nc3ccccc3n3ccnc23)cc1 [Compound 134]
Trichophyton ajelloi
  MIC: 100 µg/mL (≈ 386 µM)
[1]
  MIC: 16 µg/mL (≈ 61.7 µM)
[3]
  ED50: 0.5 mg/kg
[4]
  ED60: 7.2 mg/kg
[2]
  change in vivo at 100 mg/kg: -43%

## O=C(C=Cc1ccccc1)Nc1ccccc1-n1ccnc1 [Compound 20]
Trichophyton ajelloi
  MIC: 100 µg/mL (≈ 346 µM)
[1]
  MIC: 100 µg/mL (≈ 346 µM)
[2]
  change in vivo at 100 mg/kg: -59%

## COc1ccc(-c2nc3ccccc3n3ccnc23)cc1 [Compound 138]
Trichophyton ajelloi
  MIC: 100 µg/mL (≈ 363 µM)
[1]
  MIC: 100 µg/mL (≈ 363 µM)
[3]
  ED50: 0.72 mg/kg
[4]
  ED60: 27 mg/kg

## O=[N+]([O-])c1ccc(Nc2nc3ccccc3n3ccnc23)cc1 [Compound 189]
Trichophyton ajelloi
  MIC: 100 µg/mL (≈ 328 µM)
Trichophyton rubrum
  MIC: 100 µg/mL (≈ 328 µM)

## CC(C)(C)c1ccc(C(=O)Nc2ccccc2-n2ccnc2)cc1 [Compound 39]
Trichophyton ajelloi
  MIC: 100 µg/mL (≈ 313 µM)
[1]
  MIC: 100 µg/mL (≈ 313 µM)
[2]
  change in vivo at 100 mg/kg: -50%

## COc1ccccc1Nc1nc2ccccc2n2ccnc12 [Compound 184]
Trichophyton ajelloi
  MIC: 100 µg/mL (≈ 344 µM)
[1]
  MIC: 100 µg/mL (≈ 344 µM)
Trichophyton rubrum
  MIC: 100 µg/mL (≈ 344 µM)

## O=[N+]([O-])c1ccc(-c2nc3ccccc3n3ccnc23)cc1 [Compound 151]
Trichophyton rubrum
  MIC: 1 µg/mL (≈ 3.44 µM)
[3]
  ED50: 0.3 mg/kg
[4]
  ED60: 1.52 mg/kg

## CCCCNc1nc2ccccc2n2ccnc12 [Compound 168]
Trichophyton ajelloi
  MIC: 100 µg/mL (≈ 416 µM)
[1]
  MIC: 100 µg/mL (≈ 416 µM)
Trichophyton rubrum
  MIC: 100 µg/mL (≈ 416 µM)

## CCCCCCCCCc1nc2ccccc2n2ccnc12 [Compound 118]
[1]
  MIC: 256 µg/mL (≈ 867 µM)
Trichophyton rubrum
  MIC: 4 µg/mL (≈ 13.5 µM)
[3]
  ED50: > 50 mg/kg
[4]
  ED60: 43 mg/kg

## C(=Cc1nc2ccccc2n2ccnc12)c1ccccc1 [Compound 127]
[1]
  MIC: 16 µg/mL (≈ 59 µM)
Trichophyton rubrum
  MIC: 16 µg/mL (≈ 59 µM)
[3]
  ED50: > 50 mg/kg
[4]
  ED60: 36 mg/kg

## O=C(Nc1ccccc1-n1ccnc1)c1cccc(Br)c1 [Compound 59]
Trichophyton rubrum
  MIC: 100 µg/mL (≈ 292 µM)

## Cc1ccccc1C(=O)Nc1ccccc1-n1ccnc1 [Compound 35]
Trichophyton ajelloi
  MIC: 100 µg/mL (≈ 361 µM)
[1]
  MIC: 16 µg/mL (≈ 57.7 µM)
[2]
  change in vivo at 100 mg/kg: -50%

## CCCCCCCC(=O)Nc1ccccc1-n1ccnc1 [Compound 8]
[1]
  MIC: 8 µg/mL (≈ 28 µM)
Trichophyton rubrum
  MIC: 8 µg/mL (≈ 28 µM)
[2]
  change in vivo at 100 mg/kg: -22%
  change in vivo at 400 mg/kg: -13%

## CC(=O)Oc1ccc(-c2nc3ccccc3n3ccnc23)cc1 [Compound 163]
Trichophyton ajelloi
  MIC: 100 µg/mL (≈ 330 µM)
[1]
  MIC: 100 µg/mL (≈ 330 µM)
Trichophyton rubrum
  MIC: 100 µg/mL (≈ 330 µM)

## C=CCCCCCCCCC(=O)Nc1ccccc1-n1ccnc1 [Compound 16]
[1]
  MIC: 4 µg/mL (≈ 12.3 µM)
Trichophyton rubrum
  MIC: 2 µg/mL (≈ 6.15 µM)

## c1ccc2c(-c3nc4ccccc4n4ccnc34)cccc2c1 [Compound 160]
Trichophyton ajelloi
  MIC: 100 µg/mL (≈ 339 µM)
[1]
  MIC: 100 µg/mL (≈ 339 µM)
Trichophyton rubrum
  MIC: 100 µg/mL (≈ 339 µM)

## c1ccc(-c2ccc(-c3nc4ccccc4n4ccnc34)cc2)cc1 [Compound 135]
Trichophyton ajelloi
  MIC: 100 µg/mL (≈ 311 µM)
[1]
  MIC: 100 µg/mL (≈ 311 µM)
[3]
  ED50: 0.033 mg/kg
[4]
  ED60: 0.22 mg/kg

## CCCCCCCCCCCCCCCc1nc2ccccc2n2ccnc12 [Compound 119]
Trichophyton rubrum
  MIC: 8 µg/mL (≈ 21.1 µM)

## CCCC(=O)Oc1ccc(-c2nc3ccccc3n3ccnc23)cc1 [Compound 164]
Trichophyton ajelloi
  MIC: 100 µg/mL (≈ 302 µM)
[1]
  MIC: 100 µg/mL (≈ 302 µM)
Trichophyton rubrum
  MIC: 100 µg/mL (≈ 302 µM)

## COc1cccc(Nc2nc3ccccc3n3ccnc23)c1 [Compound 185]
Trichophyton ajelloi
  MIC: 100 µg/mL (≈ 344 µM)
[1]
  MIC: 100 µg/mL (≈ 344 µM)
Trichophyton rubrum
  MIC: 100 µg/mL (≈ 344 µM)

## Fc1ccc(Nc2nc3ccccc3n3ccnc23)cc1 [Compound 182]
Trichophyton rubrum
  MIC: 100 µg/mL (≈ 359 µM)
[3]
  ED50: 1.1 mg/kg

## FC(F)(F)c1cccc(-c2nc3ccccc3n3ccnc23)c1 [Compound 136]
[1]
  MIC: 100 µg/mL (≈ 319 µM)
[3]
  ED50: 2.7 mg/kg
[4]
  ED60: > 50 mg/kg
[2]
  change in vivo at 100 mg/kg: -9%
  change in vivo at 400 mg/kg: -25%

## COc1ccccc1C(=O)Nc1ccccc1-n1ccnc1 [Compound 58]
Trichophyton ajelloi
  MIC: 100 µg/mL (≈ 341 µM)
[1]
  MIC: 100 µg/mL (≈ 341 µM)
Trichophyton rubrum
  MIC: 100 µg/mL (≈ 341 µM)

## COc1ccc(Nc2nc3ccccc3n3ccnc23)cc1 [Compound 186]
Trichophyton ajelloi
  MIC: 100 µg/mL (≈ 344 µM)
[1]
  MIC: 100 µg/mL (≈ 344 µM)
Trichophyton rubrum
  MIC: 100 µg/mL (≈ 344 µM)

## CCCCCCCc1nc2ccccc2n2ccnc12 [Compound 116]
[1]
  MIC: 16 µg/mL (≈ 59.8 µM)
Trichophyton rubrum
  MIC: 16 µg/mL (≈ 59.8 µM)
[3]
  ED50: > 50 mg/kg
[4]
  ED60: 56 mg/kg
[2]
  change in vivo at 100 mg/kg: 104%
  change in vivo at 400 mg/kg: -18%

## Clc1cccc(Nc2nc3ccccc3n3ccnc23)c1 [Compound 179]
Trichophyton ajelloi
  MIC: 100 µg/mL (≈ 339 µM)
[1]
  MIC: 100 µg/mL (≈ 339 µM)
Trichophyton rubrum
  MIC: 100 µg/mL (≈ 339 µM)

## c1ccc2c(c1)nc(NC1CCCCC1)c1nccn12 [Compound 167]
Trichophyton ajelloi
  MIC: 100 µg/mL (≈ 375 µM)
[1]
  MIC: 100 µg/mL (≈ 375 µM)
Trichophyton rubrum
  MIC: 100 µg/mL (≈ 375 µM)

## COc1cc(OC)cc(-c2nc3ccccc3n3ccnc23)c1 [Compound 139]
[1]
  MIC: 100 µg/mL (≈ 328 µM)
[3]
  ED50: 3 mg/kg
[4]
  ED60: > 50 mg/kg
[2]
  change in vivo at 100 mg/kg: -22%
  change in vivo at 400 mg/kg: -25%

## Cc1ccccc1-c1nc2ccccc2n2ccnc12 [Compound 132]
Trichophyton ajelloi
  MIC: 100 µg/mL (≈ 386 µM)
[1]
  MIC: 100 µg/mL (≈ 386 µM)
[2]
  change in vivo at 100 mg/kg: -76%

## C=CCCCCCCCCc1nc2ccccc2n2ccnc12 [Compound 123]
Trichophyton rubrum
  MIC: 2 µg/mL (≈ 6.51 µM)
[2]
  change in vivo at 100 mg/kg: 0%
  change in vivo at 400 mg/kg: -50%

## CCCCCCCCC(=O)Nc1ccccc1-n1ccnc1 [Compound 9]
[1]
  MIC: 16 µg/mL (≈ 53.4 µM)
Trichophyton rubrum
  MIC: 16 µg/mL (≈ 53.4 µM)

## CCCCCCCCCCCCCCCCCc1nc2ccccc2n2ccnc12 [Compound 120]
Trichophyton rubrum
  MIC: 1 µg/mL (≈ 2.45 µM)

## CCCCCCCCCC(=O)Oc1ccc(-c2nc3ccccc3n3ccnc23)cc1 [Compound 165]
Trichophyton ajelloi
  MIC: 100 µg/mL (≈ 241 µM)
[1]
  MIC: 100 µg/mL (≈ 241 µM)
Trichophyton rubrum
  MIC: 100 µg/mL (≈ 241 µM)

## CCCCCCCCCC(=O)Nc1ccccc1-n1ccnc1 [Compound 10]
[1]
  MIC: 16 µg/mL (≈ 51 µM)
Trichophyton rubrum
  MIC: 16 µg/mL (≈ 51 µM)
[2]
  change in vivo at 100 mg/kg: -30%

## Brc1ccccc1-c1nc2ccccc2n2ccnc12 [Compound 145]
Trichophyton ajelloi
  MIC: 100 µg/mL (≈ 308 µM)
[1]
  MIC: 100 µg/mL (≈ 308 µM)
Trichophyton rubrum
  MIC: 100 µg/mL (≈ 308 µM)

## O=C(Nc1ccccc1-n1ccnc1)c1ccc2ccccc2c1 [Compound 62]
Trichophyton ajelloi
  MIC: 100 µg/mL (≈ 319 µM)
[1]
  MIC: 100 µg/mL (≈ 319 µM)
Trichophyton rubrum
  MIC: 100 µg/mL (≈ 319 µM)

## CC(C)(C)c1ccc(-c2nc3ccccc3n3ccnc23)cc1 [Compound 137]
Trichophyton ajelloi
  MIC: 100 µg/mL (≈ 332 µM)
[1]
  MIC: 100 µg/mL (≈ 332 µM)
[3]
  ED50: < 0.125 mg/kg
[4]
  ED60: 3.2 mg/kg
[2]
  change in vivo at 100 mg/kg: -26%

## O=[N+]([O-])c1ccccc1Nc1nc2ccccc2n2ccnc12 [Compound 187]
Trichophyton ajelloi
  MIC: 100 µg/mL (≈ 328 µM)
Trichophyton rubrum
  MIC: 100 µg/mL (≈ 328 µM)
